Consider 16 molecules from patent publication US7932281B2, “Amine-based compound and use thereof” (Kureha Corporation, priority 2004, dated 2011).

For data set [1], the system named is HIV-1IIIB infected MT-4 cells. Briefly: Anti-HIV activity, HIV-1IIIB infected MT-4 cells, MTT method (Test Example 1). The conditions noted are these: Human immunodeficiency virus 1, MT4, 120 h, concentration required for inhibition of cell disorder due to HIV infection by 50%, MOI 0.01, 5 days. Type of data set: cell-based. How it is done:
Immediately after infection, HIV-1IIIB infected MT-4 cells (3.0×10^4/well, MOI (Multiplicity of infection): 0.01) were added to a 96-well microtiter plate together with the test compounds having different concentrations. The cells were cultured in a carbon dioxide incubator at 37° C. for 5 days, and the number of living cells was measured in accordance with the MTT (tetrazolium) method ([…], et al., J. of Virol. Method, 20, 309-321 […]). The antiviral activity is represented by the concentration required for inhibition of cell disorder due to HIV infection by 50% (EC50: 50% Effective Concentration) (μM), and the results are shown in Table 2.
For orientation: Tetrazolium dyes change colour on reduction, which living cells bring about.

Another data set concerns the target T1, CXCR4 (Homo sapiens, UniProt P61073).
T1 construct: endogenous in cells; host or cells: MT-4 cells
Description: Inhibition of 125I-SDF-1α binding to receptors CXCR4 on MT-4 cells (Test Example 2). The conditions noted are these: binding-inhibition % at 0.01 μM, 2 hours under ice-cooling, read-out: Inhibition rate (%). As for the experimental part:
MT-4 cells (5×10^6/0.2 ml/well) were cultured on a 24-well microtiter plate. After the cells were incubated for 24 hours at 37° C. in a carbon dioxide gas incubator, a culture medium was replaced with a buffer solution (0.1% BSA-containing RPMI-1640). Together with a ligand ^125I-SDF-1α (specific activity: 2,200 Ci/mmol; available from Daiichi Pure Chemicals Co., Ltd. (Tokyo)), test materials with various concentrations were subjected to a binding reaction for 2 hours under ice-cooling. […] Then, a rate of inhibition of the binding between radioactive ligands and receptors CXCR4 by a test material was calculated (a binding-inhibition % at 0.01 μM).

For another data set, the system named is SD mice. Description: Acute toxicity, single transvenous administration (Test Example 3). Type of data set: in vivo. The conditions noted are these: 6-week-old male SD mice, 2.5 mg/kg transvenously once in physiological saline. As for the experimental part: The aforementioned compound was examined for acute toxicity. Specifically, 6-week-old SD mice (male) were divided into several groups (2 to 3 mice in each group). Subsequently, each of the compounds of Examples was dissolved in a physiological saline solution, and the solution was transvenously administered to the mice (dose: 2.5 mg/kg) once. Then, the number of dead mice was counted.

T1 sequence (P61073 whole entry): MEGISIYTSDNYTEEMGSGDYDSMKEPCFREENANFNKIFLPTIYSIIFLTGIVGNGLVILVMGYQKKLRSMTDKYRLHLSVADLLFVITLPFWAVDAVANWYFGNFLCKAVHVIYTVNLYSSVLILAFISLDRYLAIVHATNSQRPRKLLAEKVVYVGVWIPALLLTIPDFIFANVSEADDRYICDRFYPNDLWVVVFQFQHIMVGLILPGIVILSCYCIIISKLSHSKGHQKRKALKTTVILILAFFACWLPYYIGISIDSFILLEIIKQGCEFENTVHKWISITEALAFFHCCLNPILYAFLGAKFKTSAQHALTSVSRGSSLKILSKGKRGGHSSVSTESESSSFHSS

One may read the EC50 as the concentration at which the effect is half-maximal. Read a high EC50 as a need for much substance. Broadly, the inhibition is the percentage by which the read-out fell short of the control. As to `CCCN(CCC)CCCCN(CC#N)Cc1ccc(CN(Cc2ncc[nH]2)Cc2nccn2C)cc1` [Compound No. 82, [(4-dipropylamino-butyl)-(4-[[(1H-imidazol-2-ylmethyl)-(1-methyl-1H-imidazol-2-ylmethyl)-amino]-methyl]-benzyl)-amino]-acetonitrile], a half-maximal response in data set [1] (EC50) required 3 nM. Further, the inhibition at 0.01 µM on CXCR4 turned out to be 82.3%. Further, in the data set with SD mice, the Dead mice/test mice was 0/3.

Molecule `CCCN(CCC)CCCCN(Cc1ccc(CN(Cc2ncc[nH]2)Cc2nccn2C)cc1)S(C)(=O)=O` [Compound No. 21, N-(4-dipropylamino-butyl)-N-(4-{[(1H-imidazol-2-ylmethyl)-(1-methyl-1H-imidazol-2-ylmethyl)-amino]-methyl}-benzyl)-methanesulfonamide] yielded a 50% effective concentration (EC50) in data set [1] of 46 nM. Also, the inhibition at 0.01 µM at CXCR4 amounted to 59.2%. The Dead mice/test mice in the data set on SD mice is on record as 0/3.

`CCCN(CCC)CCCCN(CC(=O)O)Cc1ccc(CN(Cc2ncc[nH]2)Cc2ncc[nH]2)cc1` [Compound No. 88, [(4-[[bis-(1H-imidazol-2-ylmethyl)-amino]-methyl]-benzyl)-(4-dipropylamino-butyl)-amino]-acetic acid] had an EC50 in data set [1] of 2 nM. Moreover, the inhibition at 0.01 µM on CXCR4 amounted to 85%. The Dead mice/test mice in the data set on SD mice was 0/3.

In the case of `CCCN(CCC)CCCCc1nc2ccc(CN(Cc3ncc[nH]3)Cc3ncc[nH]3)cc2n1CCC` [Compound No. 3, [4-(6-{[bis-(1H-imidazol-2-ylmethyl)-amino]-methyl}-1-propyl-1H-benzimidazol-2-yl)-butyl]-dipropyl-amine], in data set [1], the concentration giving a half-maximal response (EC50) turned out to be 3 nM. For the same molecule, the inhibition at 0.01 µM at CXCR4 worked out at 71.4%. Besides, in the data set on SD mice, the Dead mice/test mice was 0/3.

In turn, `CCCN(CCC)CCCCN(CC)Cc1ccc(CN(Cc2ncc[nH]2)Cc2nccn2C)cc1` [Compound No. 23, N-ethyl-N-(4-{[(1H-imidazol-2-ylmethyl)-(1-methyl-1H-imidazol-2-ylmethyl)-amino]-methyl}-benzyl)-N′,N′-dipropyl-butane-1,4-diamine] showed a half-maximal effective concentration (EC50) in data set [1] of 3 nM. Moreover, the inhibition at 0.01 µM on CXCR4 was found to be 78.2%. Further, the Dead mice/test mice in the data set on SD mice is on record as 0/3.

With `CCCN(CCC)CCCCN(Cc1ccc(CN(Cc2ncc[nH]2)Cc2nccn2C)cc1)c1ccccc1` [Compound No. 24, N-(4-{[(1H-imidazol-2-ylmethyl)-(1-methyl-1H-imidazol-2-ylmethyl)-amino]-methyl}-benzyl)-N-phenyl-N′,N′-dipropyl-butane-1,4-diamine], in data set [1], the EC50 amounted to 95 nM. In addition, the inhibition at 0.01 µM at CXCR4 is 50.1%. For the same molecule, the Dead mice/test mice in the data set on SD mice is given as 0/3.

Consider `CCCN(CCC)CCCCN(CCC(=O)O)Cc1ccc(CN(Cc2ncc[nH]2)Cc2nccn2C)cc1` [Compound No. 51, 3-[(4-dipropylamino-butyl)-(4-{[(1H-imidazol-2-ylmethyl)-(1-methyl-1H-imidazol-2-ylmethyl)-amino]-methyl}-benzyl)-amino]-propionic acid], for which the 50% effective concentration (EC50) in data set [1] came to 2 nM. Besides, the inhibition at 0.01 µM at CXCR4 came out at 85.8%. Moreover, the Dead mice/test mice with SD mice is 0/3.

`CCCN(CCC)CCCCN(Cc1ccc(CN(Cc2ncc[nH]2)Cc2nccn2C)cc1)S(=O)(=O)c1ccc(C)cc1` [Compound No. 22, N-(4-dipropylamino-butyl)-N-(4-{[(1H-imidazol-2-ylmethyl)-(1-methyl-1H-imidazol-2-ylmethyl)-amino]-methyl}-benzyl)-4-methyl-benzenesulfonamide]: in data set [1], the concentration for a half-maximal effect (EC50) was determined as 106 nM. The inhibition at 0.01 µM at CXCR4 was determined as 84.3%. The Dead mice/test mice in the data set on SD mice is on record as 0/3.

For `CCCN(CCC)CCCCN1CCc2cc(CN(Cc3ncc[nH]3)Cc3nccn3C)ccc2C1` [Compound No. 17, [4-(6-{[(1H-imidazol-2-ylmethyl)-(1-methyl-1H-imidazol-2-ylmethyl)-amino]-methyl}-3,4-dihydro-1H-isoquinolin-2-yl)-butyl]-dipropyl-amine], the EC50 in data set [1] was found to be 3 nM. In addition, the inhibition at 0.01 µM at CXCR4 is 93.5%. In addition, the Dead mice/test mice with SD mice is on record as 0/3.

As for `CCCN(CCC)CCCCc1nc2ccc(CN(Cc3ncc[nH]3)Cc3nccn3C)cc2n1C(C)C` [Compound No. 47, [4-(6-{[(1H-imidazol-2-ylmethyl)-(1-methyl-1H-imidazol-2-ylmethyl)-amino]-methyl}-1-isopropyl-1H-benzimidazol-2-yl)-butyl]-dipropyl-amine], the EC50 in data set [1] was 2 nM. Further, the inhibition at 0.01 µM at CXCR4 is 86.2%. For the same molecule, the Dead mice/test mice in the data set on SD mice is 0/3.

`CCCN(CCC)CCCc1cccc(-c2ccc(CN(Cc3ncc[nH]3)Cc3nccn3C)cc2)n1` [Compound No. 36, {3-[6-(4-{[(1H-imidazol-2-ylmethyl)-(1-methyl-1H-imidazol-2-ylmethyl)-amino]-methyl}-phenyl)-pyridin-2-yl]-propyl}-dipropyl-amine] yielded a concentration giving a half-maximal response (EC50) in data set [1] of 656 nM. Further, the inhibition at 0.01 µM on CXCR4 turned out to be 58%. Moreover, the Dead mice/test mice in the data set with SD mice was 0/3.

With `CCCN(CCC)CCCCN(CC(=O)OC)Cc1ccc(CN(Cc2ncc[nH]2)Cc2nccn2C)cc1` [Compound No. 83, [(4-dipropylamino-butyl)-(4-[[(1H-imidazol-2-ylmethyl)-(1-methyl-1H-imidazol-2-ylmethyl)-amino]-methyl]-benzyl)-amino]-acetic acid methyl ester], the midpoint of the response in data set [1], the EC50, lay at 3 nM. For the same molecule, the inhibition at 0.01 µM on CXCR4 was 79.7%. Moreover, the Dead mice/test mice in the data set with SD mice is on record as 0/3.

In data set [1], `CCCN(CCC)CCCCc1nc2ccc(CN(Cc3ncc[nH]3)Cc3nccn3C)cc2n1CCC` [Compound No. 4, [4-(6-{[(1H-imidazol-2-ylmethyl)-(1-methyl-1H-imidazol-2-ylmethyl)-amino]-methyl}-1-propyl-1H-benzimidazol-2-yl)-butyl]-dipropyl-amine] came in with a concentration giving a half-maximal response (EC50) of 3 nM. In addition, the inhibition at 0.01 µM at CXCR4 turned out to be 94.9%. In addition, the Dead mice/test mice in the data set on SD mice is given as 0/3.

In the case of `CCCN(CCC)CCCCN(C)C(=O)N(C)c1ccc(CN(Cc2ncc[nH]2)Cc2nccn2C)cc1` [Compound No. 27, 1-(4-dipropylamino-butyl)-3-(4-{[(1H-imidazol-2-ylmethyl)-(1-methyl-1H-imidazol-2-ylmethyl)-amino]-methyl}-phenyl)-1,3-dimethyl-urea], the response in data set [1] was half-maximal at 230 nM (EC50). At CXCR4, the inhibition at 0.01 µM amounted to 43.4%. Besides, the Dead mice/test mice in the data set with SD mice was 0/3.

In data set [1], `CCCN(CCC)CCCCN(CCC(=O)OC)Cc1ccc(CN(Cc2ncc[nH]2)Cc2nccn2C)cc1` [Compound No. 34, 3-[(4-dipropylamino-butyl)-(4-{[(1H-imidazol-2-ylmethyl)-(1-methyl-1H-imidazol-2-ylmethyl)-amino]-methyl}-benzyl)-amino]-propionic acid methyl ester] showed an EC50 of 3 nM. Further, the inhibition at 0.01 µM at CXCR4 is 85.5%. Also, the Dead mice/test mice in the data set with SD mice was 0/3.

As to `CCCN(CCC)CCCCNC(=O)c1ccc(CN(Cc2ccc(C)cn2)Cc2nccn2C)cc1` [Compound No. 20, N-(4-dipropylamino-butyl)-4-{[(1-methyl-1H-imidazol-2-ylmethyl)-(5-methyl-pyridin-2-ylmethyl)-amino]-methyl}-benzamide], the response in data set [1] was half-maximal at 4 nM (EC50). At CXCR4, the inhibition at 0.01 µM was determined as 73.2%. For the same molecule, the Dead mice/test mice with SD mice is reported as 0/3.
